Assay results: BindingDB's records for doi:10.1016/j.bioorg.2012.01.003 (Institute For Advanced Studies In Basic Sciences (Iasbs), 2012)

Molecular target: Acetylcholinesterase (Electrophorus electricus, UniProt O42275)
Experiment: Inhibition Assay
Conditions: pH 8; 25 °C
Protocol: Inhibitory activity of synthesized alpha-unreidophosphonates were determined at 25 C by the colorimetric method of Ellman et al.

Acetylcholinesterase, sequence (O42275 whole entry): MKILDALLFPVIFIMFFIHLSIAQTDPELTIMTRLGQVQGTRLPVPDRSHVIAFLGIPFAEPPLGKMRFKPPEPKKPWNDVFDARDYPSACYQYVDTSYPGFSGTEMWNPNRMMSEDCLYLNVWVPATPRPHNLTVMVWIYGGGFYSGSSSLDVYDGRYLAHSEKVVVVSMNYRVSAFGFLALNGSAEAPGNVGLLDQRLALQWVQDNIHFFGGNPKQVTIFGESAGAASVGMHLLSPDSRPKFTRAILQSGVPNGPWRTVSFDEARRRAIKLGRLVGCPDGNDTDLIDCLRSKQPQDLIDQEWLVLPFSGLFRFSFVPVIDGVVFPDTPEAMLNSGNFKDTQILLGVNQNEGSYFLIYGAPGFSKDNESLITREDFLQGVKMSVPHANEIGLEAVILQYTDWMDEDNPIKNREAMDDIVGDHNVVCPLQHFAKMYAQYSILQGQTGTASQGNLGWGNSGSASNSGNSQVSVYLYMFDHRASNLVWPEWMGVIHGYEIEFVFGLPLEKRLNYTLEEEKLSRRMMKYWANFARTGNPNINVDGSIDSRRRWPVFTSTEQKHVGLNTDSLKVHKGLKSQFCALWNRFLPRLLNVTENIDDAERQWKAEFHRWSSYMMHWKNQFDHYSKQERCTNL

CCOP(=O)(OCC)C(c1ccccc1)N(C(=O)Nc1ccccc1)c1ccccc1 (stereo not drawn) [Alpha-ureidophosphonate, a]
IC50: 172 µM

CCOP(=O)(OCC)C(c1ccc(C(C)C)cc1)N(C(=O)Nc1ccccc1)c1ccccc1 (stereo not drawn) [Alpha-ureidophosphonate, b]
IC50: 230 µM

CCOP(=O)(OCC)C(c1ccc([N+](=O)[O-])cc1)N(C(=O)Nc1ccccc1)c1ccccc1 (stereo not drawn) [Alpha-ureidophosphonate, d]
IC50: 811 µM

CCOP(=O)(OCC)C(c1ccc(C)cc1)N(C(=O)Nc1ccccc1)c1ccccc1 (stereo not drawn) [Alpha-ureidophosphonate, e]
IC50: 441 µM

CCOP(=O)(OCC)C(c1ccc(F)cc1)N(C(=O)Nc1ccccc1)c1ccc(OC)cc1 (stereo not drawn) [Alpha-ureidophosphonate, g]
IC50: 69.3 µM

CCOP(=O)(OCC)C(c1ccc(C)cc1)N(Cc1ccccc1)C(=O)Nc1ccccc1 (stereo not drawn) [Alpha-ureidophosphonate, i]
IC50: 2.23 µM

CCOP(=O)(OCC)C(c1ccc(C)cc1)N(C(=O)Nc1ccccc1)C1CCCCC1 (stereo not drawn) [Alpha-ureidophosphonate, k]
IC50: 148 µM
